In US10479780B2, “Aminopyrazole derivatives” (Chugai Seiyaku Kabushiki Kaisha, priority 2015, dated 2019) one finds IC50 data, which are given here for nine molecules.

Like-named read-outs stand apart in the source and are kept apart here.

What all share (format): biochemical
Test [1] deals with T1, human Lck enzyme (Homo sapiens, UniProt P06239).
T1 construct: purchased Carna Biosciences, Inc. 08-170
Briefly: Lck enzyme inhibitory activity (time-resolved fluorometry, biotinylated peptide phosphorylation). Conditions: read-out: LCK_IC50. In a few lines:
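Readout pairs a europium cryptate-labelled anti-phosphotyrosine antibody with XL665-streptavidin, measured by time-resolved fluorescence. IC50 derived from percent inhibition against untreated controls.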

In test [2] the target is T2, human Yes1 enzyme (Homo sapiens, UniProt P07947).
T2 construct: made in house
T2 sequence (P07947 whole entry): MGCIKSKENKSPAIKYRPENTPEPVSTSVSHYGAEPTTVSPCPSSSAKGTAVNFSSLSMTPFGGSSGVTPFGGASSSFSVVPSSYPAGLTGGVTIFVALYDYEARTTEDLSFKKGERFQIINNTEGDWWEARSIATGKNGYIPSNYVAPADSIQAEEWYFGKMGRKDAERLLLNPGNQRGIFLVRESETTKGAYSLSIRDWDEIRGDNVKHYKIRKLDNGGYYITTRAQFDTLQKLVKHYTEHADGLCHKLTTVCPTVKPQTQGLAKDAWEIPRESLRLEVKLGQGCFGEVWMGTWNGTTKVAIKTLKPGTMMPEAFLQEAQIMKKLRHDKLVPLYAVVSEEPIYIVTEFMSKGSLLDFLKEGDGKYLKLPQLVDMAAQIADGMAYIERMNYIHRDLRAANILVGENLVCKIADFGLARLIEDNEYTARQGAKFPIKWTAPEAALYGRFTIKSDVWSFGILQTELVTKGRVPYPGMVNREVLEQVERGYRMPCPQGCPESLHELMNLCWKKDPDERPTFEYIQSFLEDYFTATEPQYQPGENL
Briefly: Yes1 enzyme inhibitory activity (time-resolved fluorometry, biotinylated peptide phosphorylation). Conditions: read-out: YES_IC50. An outline of the steps:
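Inhibition was expressed against a compound-free control to give IC50, using TR-FRET read-out (Eu-cryptate anti-pTyr antibody, streptavidin-XL665).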

The target of test [3] is T3, human Src enzyme (Homo sapiens, UniProt P12931).
T3 construct: purchased Carna Biosciences, Inc. 08-173
T3 sequence (P12931 whole entry): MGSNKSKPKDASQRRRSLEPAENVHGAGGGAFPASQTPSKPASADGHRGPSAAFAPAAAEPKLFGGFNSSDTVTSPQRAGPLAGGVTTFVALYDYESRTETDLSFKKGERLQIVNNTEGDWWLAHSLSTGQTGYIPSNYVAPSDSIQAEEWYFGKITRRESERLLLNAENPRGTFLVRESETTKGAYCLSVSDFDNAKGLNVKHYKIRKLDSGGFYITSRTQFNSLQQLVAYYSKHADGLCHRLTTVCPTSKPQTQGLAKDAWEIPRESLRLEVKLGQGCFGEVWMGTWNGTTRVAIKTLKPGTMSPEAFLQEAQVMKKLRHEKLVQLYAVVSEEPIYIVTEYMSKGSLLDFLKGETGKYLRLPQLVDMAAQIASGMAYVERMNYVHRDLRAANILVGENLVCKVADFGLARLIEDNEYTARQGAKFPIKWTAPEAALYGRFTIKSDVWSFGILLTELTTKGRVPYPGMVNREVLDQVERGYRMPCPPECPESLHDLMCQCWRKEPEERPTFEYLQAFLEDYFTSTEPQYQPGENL
Briefly: Src enzyme inhibitory activity (time-resolved fluorometry, biotinylated peptide phosphorylation). Conditions: read-out: SRC_IC50. An outline of the steps:
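Compounds were tested for blocking tyrosine phosphorylation of a biotinylated peptide substrate by recombinant human Src. Phosphorylated product was quantified by time-resolved fluorometry using europium cryptate and XL665 conjugates, and IC50 was calculated against the compound-free control.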

[4] abbreviates: biotinylated peptide phosphorylation.

T1 sequence (P06239 whole entry): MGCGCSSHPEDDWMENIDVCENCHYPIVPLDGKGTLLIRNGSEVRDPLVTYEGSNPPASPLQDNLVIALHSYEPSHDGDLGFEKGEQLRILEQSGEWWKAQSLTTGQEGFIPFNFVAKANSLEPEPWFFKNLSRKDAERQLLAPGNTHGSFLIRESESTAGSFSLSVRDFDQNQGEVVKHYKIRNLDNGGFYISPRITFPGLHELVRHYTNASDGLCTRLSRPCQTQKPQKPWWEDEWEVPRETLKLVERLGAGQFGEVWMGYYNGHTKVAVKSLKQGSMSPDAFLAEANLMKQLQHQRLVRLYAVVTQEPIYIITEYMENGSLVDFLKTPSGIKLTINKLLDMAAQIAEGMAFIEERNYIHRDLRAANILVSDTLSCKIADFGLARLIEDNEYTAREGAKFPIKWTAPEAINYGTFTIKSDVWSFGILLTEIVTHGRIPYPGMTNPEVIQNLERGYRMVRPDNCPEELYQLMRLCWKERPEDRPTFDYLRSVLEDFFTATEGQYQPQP

For `Cc1cc(Oc2c(F)cccc2Cl)ncc1-n1ncc(C(=O)c2cc3cc(Cl)c(NS(C)(=O)=O)cc3[nH]2)c1N` [Example 4-2-089, N-[2-[5-amino-1-[6-(2-chloro-6-fluorophenoxy)-4-methylpyridin-3-yl]pyrazole-4-carbonyl]-5-chloro-1H-indol-6-yl]methanesulfonamide], the results for the IC50 in test [1] (setting [4]), in test [2] (setting [4]) and in test [3] (setting [4]) were 13 nM, 2.7 nM and 180 nM, respectively.

Consider `Cc1cc2cc(C(=O)c3cnn(-c4ccc(Oc5ccccc5F)cc4C)c3N)[nH]c2cc1N1C(=O)[C@@H]2C[C@@H](O)CN2C1=O` [Example 5-1-459, (6R,7aS)-2-[2-[5-amino-1-[4-(2-fluorophenoxy)-2-methylphenyl]pyrazole-4-carbonyl]-5-methyl-1H-indol-6-yl]-6-hydroxy-5,6,7,7a-tetrahydropyrrolo[1,2-c]imidazole-1,3-dione], for which the figures for the IC50 in test [1] (setting [4]), in test [2] (setting [4]) and in test [3] (setting [4]) were 2.7 nM, 0.44 nM and 7.7 nM, respectively.

Take `Cc1cc(Oc2c(F)cccc2F)ncc1-n1ncc(C(=O)c2cc3cc(OCC(F)F)c(-n4c(C)cc(=O)[nH]c4=O)cc3[nH]2)c1N` [Example 4-23-029, 1-{2-{5-amino-1-[6-(2,6-difluorophenoxy)-4-methylpyridin-3-yl]pyrazole-4-carbonyl}-5-(2,2-difluoroethoxy)-1H-indol-6-yl}-6-methylpyrimidine-2,4-dione]: the IC50 in test [1] (setting [4]) turned out to be 6.1 nM; in test [2] (setting [4]), 4.7 nM; in test [3] (setting [4]), 34 nM.

As to `Cc1cc2cc(C(=O)c3cnn(-c4cc(C)c(Oc5ccccc5F)cc4C)c3N)[nH]c2cc1NS(C)(=O)=O` [Example 5-1-200, N-[2-[5-amino-1-[4-(2-fluorophenoxy)-2,5-dimethylphenyl]pyrazole-4-carbonyl]-5-methyl-1H-indol-6-yl]methanesulfonamide], the IC50 came out at 270 nM in test [1], 52 nM in test [2] and 920 nM in test [3].

With `Cc1cc(Oc2ccccc2F)ccc1-n1ncc(C(=O)c2cc3cc(C(C)C)c(NS(=O)(=O)CCCF)cc3[nH]2)c1N` [Example 5-1-280, N-[2-[5-amino-1-[4-(2-fluorophenoxy)-2-methylphenyl]pyrazole-4-carbonyl]-5-propan-2-yl-1H-indol-6-yl]-3-fluoropropane-1-sulfonamide], the IC50 in test [1] turned out to be 31 nM; in test [2] it was 1.8 nM; in test [3] it was 80 nM.

As to `Cc1cc(Oc2c(F)cccc2F)ncc1-n1ncc(C(=O)c2cc3cc(OC(F)F)c(NS(C)(=O)=O)cc3[nH]2)c1N` [Example 4-24-011, N-[2-[5-amino-1-[6-(2,6-difluorophenoxy)-4-methylpyridin-3-yl]pyrazole-4-carbonyl]-5-(difluoromethoxy)-1H-indol-6-yl]methanesulfonamide], the results for the IC50 in test [1] (setting [4]), in test [2] (setting [4]) and in test [3] (setting [4]) were 13 nM, 2.3 nM and 64 nM, respectively.

`Cc1cc2cc(C(=O)c3cnn(-c4cnc(Oc5c(F)cccc5F)cc4C)c3N)[nH]c2cc1N1C(=O)NC2(COC2)C1=O` [Example 5-1-404, 7-[2-[5-amino-1-[6-(2,6-difluorophenoxy)-4-methylpyridin-3-yl]pyrazole-4-carbonyl]-5-methyl-1H-indol-6-yl]-2-oxa-5,7-diazaspiro[3.4] octane-6,8-dione]: the IC50 in test [1] (setting [4]) came out at 2.6 nM; in test [2] (setting [4]), 1.7 nM; in test [3] (setting [4]), 48 nM.

In the case of `Cc1cc(Oc2ccccc2F)ncc1-n1ncc(C(=O)c2cc3cc(N(CCN4CCOCC4)S(C)(=O)=O)c(O)cc3[nH]2)c1N` [Example 4-2-130], the IC50 was determined as 4.5 nM in test [1] (setting [4]), 1.4 nM in test [2] (setting [4]) and 34 nM in test [3] (setting [4]).

In the case of `Cc1cc(Oc2ccccc2F)ccc1-n1ncc(C(=O)c2cc3cc(OCC(F)F)c(NS(C)(=O)=O)cc3[nH]2)c1N` [Example 4-24-021, N-[2-[5-amino-1-[4-(2-fluorophenoxy)-2-methylphenyl]pyrazole-4-carbonyl]-5-(2,2-difluoroethoxy)-1H-indol-6-yl]methanesulfonamide], the IC50 came to 9.7 nM in test [1] (setting [4]), 1.7 nM in test [2] (setting [4]) and 22 nM in test [3] (setting [4]).
